What was measured:
FLT3-D835Y = target: T1, FLT3-D835Y (Homo sapiens, UniProt P36888, D835Y); assay: FLT3-D835Y recombinant enzyme kinase assay (AlphaScreen); format: biochemical; conditions: 8 pt, GMean
T1 construct: purchased Invitrogen PV3967
T1 sequence (P36888 27-993 D835Y): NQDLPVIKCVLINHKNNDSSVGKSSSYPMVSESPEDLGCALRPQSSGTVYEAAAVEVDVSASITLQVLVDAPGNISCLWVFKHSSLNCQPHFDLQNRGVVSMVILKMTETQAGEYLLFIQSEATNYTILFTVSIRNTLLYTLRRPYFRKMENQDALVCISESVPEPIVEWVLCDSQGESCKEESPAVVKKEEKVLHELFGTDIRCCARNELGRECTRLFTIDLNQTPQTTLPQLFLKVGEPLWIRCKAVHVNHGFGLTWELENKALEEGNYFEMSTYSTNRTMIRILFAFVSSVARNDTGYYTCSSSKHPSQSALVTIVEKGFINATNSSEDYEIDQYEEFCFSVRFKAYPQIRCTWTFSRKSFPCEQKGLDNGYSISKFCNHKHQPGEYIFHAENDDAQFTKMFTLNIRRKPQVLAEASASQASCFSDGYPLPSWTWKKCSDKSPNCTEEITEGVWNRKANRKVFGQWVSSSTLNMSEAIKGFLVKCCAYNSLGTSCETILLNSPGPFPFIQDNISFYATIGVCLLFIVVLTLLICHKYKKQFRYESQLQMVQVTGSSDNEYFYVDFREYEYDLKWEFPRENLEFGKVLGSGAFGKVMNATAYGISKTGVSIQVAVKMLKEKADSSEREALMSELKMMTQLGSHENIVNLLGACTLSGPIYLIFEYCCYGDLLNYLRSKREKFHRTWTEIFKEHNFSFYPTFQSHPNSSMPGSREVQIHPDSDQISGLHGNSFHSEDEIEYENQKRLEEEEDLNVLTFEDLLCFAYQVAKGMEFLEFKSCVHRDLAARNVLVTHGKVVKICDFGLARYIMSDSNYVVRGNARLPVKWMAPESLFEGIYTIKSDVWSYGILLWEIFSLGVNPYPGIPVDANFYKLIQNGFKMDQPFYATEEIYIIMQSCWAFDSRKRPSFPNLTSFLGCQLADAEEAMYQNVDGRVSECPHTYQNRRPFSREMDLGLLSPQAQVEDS
In short: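 IC50 values are derived from reduced AlphaScreen signal as inhibitors block tyrosine phosphorylation of a biotinylated poly(Glu4-Tyr) peptide (30 nM) by recombinant kinase. FLT3 variants are run at 10 μM ATP, c-KIT at 100 μM.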

[1] = tested on: MOLM-14 F691L (endogenous FLT3 ITD and transfected FLT3 F691L); assay: MOLM-14 F691L cell proliferation assay (CellTiter-Glo); format: cell-based; conditions: Homo sapiens, MOLM-14, 72 h; 3 d growth, GMean
In short: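 MOLM-14 cells (FLT3 ITD) carrying D835Y or F691L, 1×10^4 cells/well, eight 1:3 dilutions from 1 μM final, 0.2% DMSO, 3 days at 37 °C, 5% CO2. Viability by CellTiter-Glo luminescence (ATP content); IC50 from concentration-response.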

SMILES | IC50 (FLT3-D835Y) | IC50 [1]
Cc1ncc(NC(=O)Cc2ccc(-c3cnc4[nH]cc(F)c4c3)cc2F)cc1C(F)(F)F [Compound P-0062, 2-[2-fluoro-4-(3-fluoro-1H-pyrrolo[2,3-b]pyridin-5-yl)phenyl]-N-[6-methyl-5-(trifluoromethyl)-3-pyridyl]acetamide] | 0.0001 to 10 µM | 0.0001 to 10 µM
O=C(Cc1ccc(-c2cnc3[nH]cc(C(=O)C4CC4)c3c2)cc1F)Nc1ccnc(C(F)(F)F)c1 [Compound P-0032, 2-[4-[3-(cyclopropanecarbonyl)-1H-pyrrolo[2,3-b]pyridin-5-yl]-2-fluoro-phenyl]-N-[2-(trifluoromethyl)-4-pyridyl]acetamide] | 0.0001 to 10 µM | 0.0001 to 10 µM
COc1ncc(NC(=O)Cc2ccc(-c3cnc(Nc4cnn5ccccc45)nc3)cc2F)cc1C(F)(F)F [Compound P-0037, 2-[2-fluoro-4-[2-(pyrazolo[1,5-a]pyridin-3-ylamino)pyrimidin-5-yl]phenyl]-N-[6-methoxy-5-(trifluoromethyl)-3-pyridyl]acetamide] | 0.0001 to 10 µM | 0.0001 to 10 µM
COc1ncc(NC(=O)Cc2ccc(-c3cnc4[nH]cc(F)c4c3)cc2F)cc1C(F)(F)F [Compound P-0034, 2-[2-fluoro-4-(3-fluoro-1H-pyrrolo[2,3-b]pyridin-5-yl)phenyl]-N-[6-methoxy-5-(trifluoromethyl)-3-pyridyl]acetamide] | 0.0001 to 10 µM | 0.0001 to 10 µM
Cc1ncc(NC(=O)Cc2ccc(-c3cnc4[nH]cc(Cl)c4n3)cc2F)cc1C(F)(F)F [Compound P-0059, 2-[4-(7-chloro-5H-pyrrolo[2,3-b]pyrazin-2-yl)-2-fluoro-phenyl]-N-[6-methyl-5-(trifluoromethyl)-3-pyridyl]acetamide] | 0.0001 to 10 µM | 0.0001 to 10 µM
Cn1cc(Nc2ncc(-c3ccc(CC(=O)Nc4cncc(C5CC5)c4)c(F)c3)cn2)cn1 [Compound P-0081, N-(5-cyclopropyl-3-pyridyl)-2-[2-fluoro-4-[2-[(1-methylpyrazol-4-yl)amino]pyrimidin-5-yl]phenyl]acetamide] | 0.0001 to 10 µM | 0.0001 to 10 µM
Cc1nn(C)cc1Nc1ncc(-c2ccc(CC(=O)Nc3cnc(C)c(C(F)(F)F)c3)c(F)c2)cn1 [Compound P-0077, 2-[4-[2-[(1,3-dimethylpyrazol-4-yl)amino]pyrimidin-5-yl]-2-fluoro-phenyl]-N-[6-methyl-5-(trifluoromethyl)-3-pyridyl]acetamide] | 0.0001 to 10 µM | 0.0001 to 10 µM
Cn1cc(Nc2ncc(-c3ccc(CC(=O)Nc4ccnc(C(F)(F)F)c4)c(F)c3)cn2)cn1 [Compound P-0083, 2-[2-fluoro-4-[2-[(1-methylpyrazol-4-yl)amino]pyrimidin-5-yl]phenyl]-N-[2-(trifluoromethyl)-4-pyridyl]acetamide] | 0.0001 to 10 µM | 0.0001 to 10 µM
O=C(Cc1ccc(-c2cnc3[nH]cc(F)c3c2)cc1F)Nc1cncc(C(F)(F)F)c1 [Compound P-0053, 2-[2-fluoro-4-(3-fluoro-1H-pyrrolo[2,3-b]pyridin-5-yl)phenyl]-N-[5-(trifluoromethyl)-3-pyridyl]acetamide] | 0.0001 to 10 µM | 0.0001 to 10 µM
Cn1cc(Nc2ncc(-c3ccc(CC(=O)Nc4cncc(C(F)(F)F)c4)c(F)c3)cn2)cn1 [Compound P-0084, 2-[2-fluoro-4-[2-[(1-methylpyrazol-4-yl)amino]pyrimidin-5-yl]phenyl]-N-[5-(trifluoromethyl)-3-pyridyl]acetamide] | 0.0001 to 10 µM | 0.0001 to 10 µM
COc1ncc(NC(=O)Cc2ccc(-c3cnc(Nc4cn[nH]c4)nc3)cc2)cc1C(F)(F)F [Compound P-0025, N-[6-methoxy-5-(trifluoromethyl)-3-pyridyl]-2-[4-[2-(1H-pyrazol-4-ylamino)pyrimidin-5-yl]phenyl]acetamide] | 0.0001 to 10 µM | 0.0001 to 10 µM
CC(C)(C)c1ccc(NC(=O)Cc2ccc(-c3cnc4[nH]cc(F)c4c3)cc2F)cn1 [Compound P-0043, N-(6-tert-butyl-3-pyridyl)-2-[2-fluoro-4-(3-fluoro-1H-pyrrolo[2,3-b]pyridin-5-yl)phenyl]acetamide] | 0.0001 to 10 µM | 0.0001 to 10 µM
O=C(Cc1ccc(-c2cnc(Nc3cnn4ccccc34)nc2)cc1)Nc1cncc(C(F)(F)F)c1 [Compound P-0074, 2-[4-[2-(pyrazolo[1,5-a]pyridin-3-ylamino)pyrimidin-5-yl]phenyl]-N-[5-(trifluoromethyl)-3-pyridyl]acetamide] | 0.0001 to 10 µM | 0.0001 to 10 µM
COc1nn(C[C@H](C)O)cc1Nc1ncc(-c2ccc(CC(=O)Nc3cncc(C(F)(F)F)c3)c(F)c2)cn1 [Compound P-0050, 2-[2-fluoro-4-[2-[[1-[(2S)-2-hydroxypropyl]-3-methoxy-pyrazol-4-yl]amino]pyrimidin-5-yl]phenyl]-N-[5-(trifluoromethyl)-3-pyridyl]acetamide] | 0.0001 to 10 µM | 0.0001 to 10 µM
O=C(Cc1ccc(-c2cnc3[nH]cc(Cl)c3n2)cc1F)Nc1cnc(Cl)c(C(F)(F)F)c1 [Compound P-0060, 2-[4-(7-chloro-5H-pyrrolo[2,3-b]pyrazin-2-yl)-2-fluoro-phenyl]-N-[6-chloro-5-(trifluoromethyl)-3-pyridyl]acetamide] | 0.0001 to 10 µM | 0.0001 to 10 µM
O=C(Cc1ccc(-c2cnc(Nc3cnn4ccccc34)nc2)c(F)c1)Nc1cncc(C(F)(F)F)c1 [Compound P-0071, 2-[3-fluoro-4-[2-(pyrazolo[1,5-a]pyridin-3-ylamino)pyrimidin-5-yl]phenyl]-N-[5-(trifluoromethyl)-3-pyridyl]acetamide] | 0.0001 to 10 µM | 0.0001 to 10 µM
O=C(Cc1ccc(-c2cnc3[nH]nc(C4CC4)c3c2)cc1)Nc1cncc(C(F)(F)F)c1 [Compound P-0073, 2-[4-(3-cyclopropyl-1H-pyrazolo[3,4-b]pyridin-5-yl)phenyl]-N-[5-(trifluoromethyl)-3-pyridyl]acetamide] | 0.0001 to 10 µM | 0.0001 to 10 µM
Cc1ncc(NC(=O)Cc2ccc(-c3cnc4[nH]cc(Cl)c4n3)cc2)cc1C(F)(F)F [Compound P-0079, 2-(4-(7-chloro-5H-pyrrolo[2,3-b]pyrazin-2-yl)phenyl)-N-(6-methyl-5-(trifluoromethyl)pyridin-3-yl)acetamide] | 0.0001 to 10 µM | 0.0001 to 10 µM
Cc1ncc(NC(=O)Cc2ccc(-c3cnc4[nH]c(Cl)cc4c3)cc2F)cc1C(F)(F)F [Compound P-0067, 2-[4-(2-chloro-1H-pyrrolo[2,3-b]pyridin-5-yl)-2-fluoro-phenyl]-N-[6-methyl-5-(trifluoromethyl)-3-pyridyl]acetamide] | 0.0001 to 10 µM | 0.0001 to 10 µM

From patent US10160747B2, “Compounds and methods for kinase modulation, and indications therefor” (Plexxikon Inc., priority 2016, dated 2018)
